Test results from US11878965B2, “Inhibitors of peptidylarginine deiminases” (Gilead Sciences, Inc., priority 2020, dated 2024).

Target: human PAD4 (Homo sapiens (Human), UniProt Q9UM07)
Assay: In Vitro PAD4 BAEE Biochemical Assay
Conditions: geometric mean of multiple experiments
How it was run: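 Deimination of BAEE substrate (3 mM) measured as ammonia via o-phthalaldehyde–DTT isoindole fluorescence, 405/535 nm. Tag-free bacterially expressed human PAD4 at 5 nM with 2 mM calcium chloride, pH 7.6 MOPS buffer, 30 min compound preincubation then 2 h reaction, both at 25 °C.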

[1] = human PAD4, BAEE substrate, 5 nM PAD4, 2 mM calcium chloride, 3 mM BAEE
[2] = recombinant PAD4 5 nM, 2 mM calcium chloride, 3 mM BAEE substrate

Sequence of human PAD4 (Q9UM07 2-663): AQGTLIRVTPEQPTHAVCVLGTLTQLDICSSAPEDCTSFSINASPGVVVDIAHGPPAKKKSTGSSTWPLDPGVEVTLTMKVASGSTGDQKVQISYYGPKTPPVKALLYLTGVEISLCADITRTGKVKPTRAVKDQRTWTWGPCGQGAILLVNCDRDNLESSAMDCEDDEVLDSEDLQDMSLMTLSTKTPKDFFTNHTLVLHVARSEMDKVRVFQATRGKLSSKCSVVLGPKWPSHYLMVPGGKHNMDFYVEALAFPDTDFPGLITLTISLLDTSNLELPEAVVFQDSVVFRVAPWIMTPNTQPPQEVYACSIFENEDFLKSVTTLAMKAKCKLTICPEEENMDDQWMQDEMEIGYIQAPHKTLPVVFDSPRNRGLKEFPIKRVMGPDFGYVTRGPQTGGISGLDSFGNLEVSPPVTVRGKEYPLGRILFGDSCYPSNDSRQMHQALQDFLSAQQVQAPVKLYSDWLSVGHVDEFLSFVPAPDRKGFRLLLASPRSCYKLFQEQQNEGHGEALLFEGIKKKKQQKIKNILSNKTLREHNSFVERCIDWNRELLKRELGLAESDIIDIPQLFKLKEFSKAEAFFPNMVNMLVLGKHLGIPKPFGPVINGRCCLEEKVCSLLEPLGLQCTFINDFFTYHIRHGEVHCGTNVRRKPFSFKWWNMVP

SMILES | IC50 [1] | IC50 [2]
COc1cc(C(=O)N2CCC[C@@H](N)C2)cc2nc(-c3cc4ccc([C@@H](C)NC(=O)C56CC(F)(C5)C6)c(F)c4n3CC3CC3)n(C)c12 [Example 143, N-((R)-1-(2-(5-((R)-3-aminopiperidine-1-carbonyl)-7-methoxy-1-methyl-1H-benzo[d]imidazol-2-yl)-1-(cyclopropylmethyl)-7-fluoro-1H-indol-6-yl)ethyl)-3-fluorobicyclo[1.1.1]pentane-1-carboxamide] | 502 nM | –
COc1cc(C(=O)N2C[C@H](N)CC[C@@H]2C)cc2nc(-c3cc4ccc(-c5c(C)ccnc5-c5ccccc5)nc4n3CC3CC3)n(C)c12 [Example 276, ((2S,5R)-5-amino-2-methylpiperidin-1-yl)(2-(1-(cyclopropylmethyl)-6-(4-methyl-2-phenylpyridin-3-yl)-1H-pyrrolo[2,3-b]pyridin-2-yl)-7-methoxy-1-methyl-1H-benzo[d]imidazol-5-yl)methanone] | 423 nM | –
COc1cc(C(=O)N2C[C@H](N)[C@@H]3CC[C@H]2C3)cc2nc(-c3cc4ccc([C@@H](C)NC(=O)C(C)(C)OC)nc4n3CC3CC3)n(C)c12 [Example 321, N-((R)-1-(2-(5-((1S,4R,5R)-4-amino-2-azabicyclo[3.2.1]octane-2-carbonyl)-7-methoxy-1-methyl-1H-benzo[d]imidazol-2-yl)-1-(cyclopropylmethyl)-1H-pyrrolo[2,3-b]pyridin-6-yl)ethyl)-2-methoxy-2-methylpropanamide] | – | 72 nM
COc1cc(C(=O)N2CCC[C@@H](N)C2)cc2nc(-c3cc4ccc(-c5cccnc5-c5csc(N6CCCCC6)n5)nc4n3CC3CC3)n(C)c12 [Example 270, (R)-(3-aminopiperidin-1-yl)(2-(1-(cyclopropylmethyl)-6-(2-(2-(piperidin-1-yl)thiazol-4-yl)pyridin-3-yl)-1H-pyrrolo[2,3-b]pyridin-2-yl)-7-methoxy-1-methyl-1H-benzo[d]imidazol-5-yl)methanone] | 351 nM | –
COc1cc(C(=O)N2[C@H]3CC[C@@H]2[C@H](N)C3)cc2nc(-c3cc4ccc([C@@H](C)NC(=O)C5(OC)CC5)cc4n3CC3CC3)n(C3CC3)c12 [Example 147, N-((R)-1-(2-(5-((1R,2R,4S)-2-amino-7-azabicyclo[2.2.1]heptane-7-carbonyl)-1-cyclopropyl-7-methoxy-1H-benzo[d]imidazol-2-yl)-1-(cyclopropylmethyl)-1H-indol-6-yl)ethyl)-1-methoxycyclopropane-1-carboxamide] | 78.9 nM | –
COc1cc(C(=O)N2CCC[C@@H](N)[C@H]2C)cc2nc(-c3cc4ccc(N(C)S(C)(=O)=O)nc4n3C3CC3)n(C)c12 [Example 47, N-(2-(5-((2R,3R)-3-amino-2-methylpiperidine-1-carbonyl)-7-methoxy-1-methyl-1H-benzo[d]imidazol-2-yl)-1-cyclopropyl-1H-pyrrolo[2,3-b]pyridin-6-yl)-N-methylmethanesulfonamide] | 1730 nM | –
COc1cc(C(=O)N2CCC[C@@H](N)C2)cc2nc(-c3cc4ccc(N(C)S(C)(=O)=O)nc4n3CC3CC3)n(C)c12 [Example 3, (R)-N-(2-(5-(3-aminopiperidine-1-carbonyl)-7-methoxy-1-methyl-1H-benzo[d]imidazol-2-yl)-1-(cyclopropylmethyl)-1H-pyrrolo [2,3-b]pyridin-6-yl)-N-methylmethanesulfonamide] | 122 nM | –
CNC(=O)N(C)c1ccc2cc(-c3nc4cc(C(=O)N5CCC[C@@H](N)C5)cc(OC)c4n3C)n(CC3CC3)c2n1 [Example 116, (R)-1-(2-(5-(3-aminopiperidine-1-carbonyl)-7-methoxy-1-methyl-1H-benzo[d]imidazol-2-yl)-1-(cyclopropylmethyl)-1H-pyrrolo[2,3-b]pyridin-6-yl)-1,3-dimethylurea] | 496 nM | –
COc1cc(C(=O)N2C[C@H](N)[C@@H]3CC[C@H]2C3)cc2nc(-c3cc4ccc([C@@H](C)NC(=O)c5ccnc(C(F)(F)F)n5)nc4n3CC3CC3)n(C)c12 [Example 316, N-((R)-1-(2-(5-((1S,4R,5R)-4-amino-2-azabicyclo[3.2.1]octane-2-carbonyl)-7-methoxy-1-methyl-1H-benzo[d]imidazol-2-yl)-1-(cyclopropylmethyl)-1H-pyrrolo[2,3-b]pyridin-6-yl)ethyl)-2-(trifluoromethyl)pyrimidine-4-carboxamide] | – | 570 nM
COc1cc(C(=O)N2C[C@H](N)[C@@H]3CC[C@H]2C3)cc2nc(-c3cc4ccc([C@@H](C)NC(=O)C5(F)CC5)nc4n3CC3CC3)n(C)c12 [Example 326, N-((R)-1-(2-(5-((1S,4R,5R)-4-amino-2-azabicyclo[3.2.1]octane-2-carbonyl)-7-methoxy-1-methyl-1H-benzo[d]imidazol-2-yl)-1-(cyclopropylmethyl)-1H-pyrrolo[2,3-b]pyridin-6-yl)ethyl)-1-fluorocyclopropane-1-carboxamide] | – | 103 nM
COc1cc(C(=O)N2[C@H]3CC[C@@H]2[C@H](N)C3)cc2nc(-c3cc4ccc(N(C)S(C)(=O)=O)nc4n3CC3CC3)n(C)c12 [Example 79, N-(2-(5-((1R,2R,4S)-2-amino-7-azabicyclo[2.2.1]heptane-7-carbonyl)-7-methoxy-1-methyl-1H-benzo[d]imidazol-2-yl)-1-(cyclopropylmethyl)-1H-pyrrolo[2,3-b]pyridin-6-yl)-N-methyl-methanesulfonamide] | 33.6 nM | –
COc1cc(C(=O)N2[C@H]3CC[C@@H]2[C@H](N)C3)cc2nc(-c3cc4ccc([C@@H](C)NC(=O)C5(n6cccn6)CC5)nc4n3CC3CC3)n(C)c12 [Example 173, N-((R)-1-(2-(5-((1R,2R,4S)-2-amino-7-azabicyclo[2.2.1]heptane-7-carbonyl)-7-methoxy-1-methyl-1H-benzo[d]imidazol-2-yl)-1-(cyclopropylmethyl)-1H-pyrrolo[2,3-b]pyridin-6-yl)ethyl)-1-(1H-pyrazol-1-yl)cyclopropane-1-carboxamide] | 96.7 nM | –
[2H]C([2H])([2H])C(C(=O)N[C@H](C)c1ccc2cc(-c3nc4cc(C(=O)N5C[C@H](N)CCN5C)cc(OC)c4n3C)n(CC3CC3)c2n1)(C([2H])([2H])[2H])C([2H])([2H])[2H] [Example 189, N-((R)-1-(2-(5-((R)-5-amino-2-methylhexahydropyridazine-1-carbonyl)-7-methoxy-1-methyl-1H-benzo[d]imidazol-2-yl)-1-(cyclopropylmethyl)-1H-pyrrolo[2,3-b]pyridin-6-yl)ethyl)-2,2-bis(methyl-d3)propanamide] | 92.2 nM | –
COc1cc(C(=O)N2C[C@H](N)CCN2C)cc2nc(-c3cc4ccc([C@@H](C)NC(=O)C5(C(F)(F)F)CC5)nc4n3CC3CC3)n(C)c12 [Example 192, N-((R)-1-(2-(5-((R)-5-amino-2-methylhexahydropyridazine-1-carbonyl)-7-methoxy-1-methyl-1H-benzo[d]imidazol-2-yl)-1-(cyclopropylmethyl)-1H-pyrrolo[2,3-b]pyridin-6-yl)ethyl)-1-(trifluoromethyl)cyclopropane-1-carboxamide] | 174 nM | –
COc1cc(C(=O)N2[C@H]3CC[C@@H]2[C@H](N)C3)cc2nc(-c3cc4ccc([C@@H](C)NS(=O)(=O)c5ccc(F)cc5)nc4n3CC3CC3)n(C)c12 [Example 242, N-((R)-1-(2-(5-((1R,2R,4S)-2-amino-7-azabicyclo[2.2.1]heptane-7-carbonyl)-7-methoxy-1-methyl-1H-benzo[d]imidazol-2-yl)-1-(cyclopropylmethyl)-1H-pyrrolo[2,3-b]pyridin-6-yl)ethyl)-4-fluorobenzenesulfonamide] | 107 nM | –
COc1cc(C(=O)N2C[C@H](N)CC[C@@H]2C)cc2nc(-c3cc4ccc(N(C(F)F)S(C)(=O)=O)nc4n3CC3CC3)n(C34CC(C3)C4)c12 [Example 48, N-(2-(5-((2S,5R)-5-amino-2-methylpiperidine-1-carbonyl)-1-(bicyclo[1.1.1]pentan-1-yl)-7-methoxy-1H-benzo[d]imidazol-2-yl)-1-(cyclopropylmethyl)-1H-pyrrolo[2,3-b]pyridin-6-yl)-N-(difluoromethyl) methane sulfonamide] | 2130 nM | –
COc1cc(C(=O)N2C[C@H](N)CCN2C)cc2nc(-c3cc4ccc([C@@H](C)NC(=O)c5nc(C)ccc5C)nc4n3CC3CC3)n(C)c12 [Example 176, N-((R)-1-(2-(5-((R)-5-amino-2-methylhexahydropyridazine-1-carbonyl)-7-methoxy-1-methyl-1H-benzo[d]imidazol-2-yl)-1-(cyclopropylmethyl)-1H-pyrrolo[2,3-b]pyridin-6-yl)ethyl)-3,6-dimethylpicolinamide] | 231 nM | –
COc1cc(C(=O)N2C[C@H](N)[C@@H]3CC[C@H]2C3)cc2nc(-c3cc4ccc([C@@H](C)NC(=O)C5(C)CC(F)(F)C5)nc4n3CC3CC3)n(C)c12 [Example 328, N-((R)-1-(2-(5-((1S,4R,5R)-4-amino-2-azabicyclo[3.2.1]octane-2-carbonyl)-7-methoxy-1-methyl-1H-benzo[d]imidazol-2-yl)-1-(cyclopropylmethyl)-1H-pyrrolo[2,3-b]pyridin-6-yl)ethyl)-3,3-difluoro-1-methylcyclobutane-1-carboxamide] | – | 101 nM
COc1cc(C(=O)N2C[C@H](N)[C@@H]3CC[C@H]2C3)cc2nc(-c3cc4ccc([C@@H](C)NC(=O)c5cccnc5C(F)(F)F)nc4n3CC3CC3)n(C)c12 [Example 306, N-((R)-1-(2-(5-((1S,4R,5R)-4-amino-2-azabicyclo[3.2.1]octane-2-carbonyl)-7-methoxy-1-methyl-1H-benzo[d]imidazol-2-yl)-1-(cyclopropylmethyl)-1H-pyrrolo[2,3-b]pyridin-6-yl)ethyl)-2-(trifluoromethyl)nicotinamide] | – | 92.8 nM
